Like-named read-outs stand apart in the source and are kept apart here.
Assays:
Pyricularia oryzae = type: in vivo
Botrytis cinerea = experiment: Botrytis test (beans)/preventive; conditions: 100 ppm, preventive, lesion size 2 days after inoculation
Description: Botrytis Test (Beans)/Preventive
(§1) Solvent: 24.5 parts by weight of acetone • 24.5 parts by weight of N,N-dimethylformamide
(§2) Emulsifier: 1 part by weight of alkylaryl polyglycol ether
After the spray coating has dried on, 2 small pieces of agar covered with growth of Botrytis cinerea are placed on each leaf. The inoculated plants are placed in a darkened chamber at 20° C. and a relative atmospheric humidity of 100%.
2 days after the inoculation, the size of the lesions on the leaves is evaluated.

Sphaerotheca fuliginea = experiment: Sphaerotheca test (cucumber)/preventive; type: in vivo; conditions: 500 ppm, preventive, evaluated 7 days after inoculation
Puccinia triticina = experiment: Puccinia triticina-test (wheat)/preventive; type: in vivo; conditions: 500 ppm, preventive, evaluated 8 days after inoculation
Venturia inaequalis = experiment: Venturia test (apples)/preventive; conditions: 100 ppm, preventive, evaluated 10 days after inoculation
Description: Venturia Test (Apples)/Preventive
as §1, §2
After the spray coating has dried on, the plants are inoculated with an aqueous conidia suspension of the causal agent of apple scab (Venturia inaequalis) and then remain for 1 day in an incubation cabinet at approximately 20° C. and a relative atmospheric humidity of 100%.
The plants are then placed in a greenhouse at approximately 21° C. and a relative atmospheric humidity of approximately 90%.
The test is evaluated 10 days after the inoculation.

Uromyces appendiculatus = conditions: 100 ppm, beans, preventive, evaluated 10 days after inoculation
Alternaria solani = experiment: Alternaria test (tomato)/preventive; type: in vivo; conditions: 500 ppm, preventive, evaluated 7 days after inoculation
Septoria tritici = experiment: Septoria tritici-test (wheat)/preventive; type: in vivo; conditions: 500 ppm, preventive, evaluated 21 days after inoculation
Pyrenophora teres = experiment: Pyrenophora teres-test (barley)/preventive; type: in vivo; conditions: 500 ppm, preventive, evaluated 8 days after inoculation
[1] = logP by HPLC on reversed-phase column (EEC Directive 79/831 Annex V.A8); conditions: HPLC on reversed-phase column (C 18), EEC Directive 79/831 Annex V.A8
[2] = system: Fusarium nivale (var. majus); experiment: Fusarium nivale (var. majus)-test (wheat)/preventive; conditions: for Efficacy: preventive, evaluated 5 days after inoculation
Description: Fusarium Nivale (Var. Majus)-Test (Wheat)/Preventive
Solvent: 49 parts by weight of N,N-dimethylacetamide
as §2
After the spray coating has been dried, the plants are slightly injured by using a sandblast and afterwards they are sprayed with a conidia suspension of Fusarium nivale (var. majus).
The plants are placed in the greenhouse under a translucent incubation cabinet at a temperature of approximately 10° C. and a relative atmospheric humidity of approximately 100%.
The test is evaluated 5 days after the inoculation.

Phakopsora pachyrhizi = experiment: Phakopsora test (soybeans)/protective; type: in vivo; conditions: 250 ppm, protective, evaluated 11 days after inoculation
Rhizoctonia solani = experiment: Rhizoctonia test (rice)/protective; type: in vivo; conditions: 250 ppm, protective, evaluated 4 days after inoculation
Description: Rhizoctonia Test (Rice)/Protective
Solvent: 28.5 parts by weight of acetone
Emulsifier: 1.5 part by weight of alkylaryl polyglycol ether
1 day after the treatment, the plants are inoculated with hyphae of Rhizoctonia solani.
Evaluation is carried out 4 days after the inoculation.

Cochliobolus miyabeanus = experiment: Cochliobolus test (rice)/protective; type: in vivo; conditions: 250 ppm, protective, evaluated 4 days after inoculation

Row | SMILES | Efficacy (Botrytis cinerea) | Efficacy (Sphaerotheca fuliginea) | Efficacy (Puccinia triticina) | Efficacy (Venturia inaequalis) | Efficacy (Uromyces appendiculatus) | Efficacy (Alternaria solani) | Efficacy (Septoria tritici) | Efficacy (Pyrenophora teres) | logP [1] | Efficacy ([2]; 500 ppm) | Efficacy (Rhizoctonia solani) | Efficacy (Cochliobolus miyabeanus) | further results
1 | Cn1cc(C(=O)Nc2ccc(F)cc2-c2ccc(Cl)c(Cl)c2)c(C(F)F)n1 [11 from WO-2003/070705, N-(3′,4′-dichloro-5-fluorobiphenyl-2-yl)-3-(difluoromethyl)-1-methyl-1H-pyrazole-4-carboxamide, reference compound] |  |  |  |  |  |  |  |  |  |  |  |  | Efficacy (Pyricularia oryzae; 100 ppm, rice, protective, evaluated 5 days after inoculation): 20%; Efficacy (Pyricularia oryzae; 250 ppm, rice, protective, evaluated 5 days after inoculation): 80%; protection (Pyricularia oryzae; dose of 100 ppm and 250 ppm of active ingredient, rice): poor (less than 20%) protection to good (at least 70%) protection
2 | Cn1nc(C(F)F)c(C(=O)Nc2ccccc2-c2ccc(Cl)c(F)c2)c1F [Example 100] | 99% | 100% | 100% | 99% | 99% | 80% | 100% | 100% | 3.45 | 90% |  |  | 
3 | Cn1nc(C(F)F)c(C(=O)Nc2ccccc2C2CC2C2CC2)c1Cl (single isomer, unassigned) [Example 48] |  |  | 100% | 100% | 100% |  |  | 86% | 3.85 |  | 98% |  | Efficacy (Phakopsora pachyrhizi): 99%; Efficacy ([2]; 500 ppm, listed as 48 from this invention): 86%
4 | CC(C)C1C2CCC1c1c(NC(=O)c3c(C(F)F)nn(C)c3Cl)cccc12 (centres unmarked) [Example 67] | 99% |  | 100% | 100% | 100% |  | 100% | 100% | 4.55 | 100% | 100% | 90% | Efficacy (Pyricularia oryzae; in vivo): 96%; Efficacy ([2]; 250 ppm): 71%
5 | Cn1nc(C(F)F)c(C(=O)Nc2ccccc2-c2cc(F)c(F)c(F)c2)c1Cl [Example 105] | 100% |  | 100% | 100% |  |  |  | 100% | 3.52 | 100% | 100% | 95% | Efficacy (Uromyces appendiculatus; listed as 105 from this invention): 100%
6 | Cn1nc(C(F)F)c(C(=O)Nc2ccccc2-c2ccc(Br)c(Cl)c2)c1Cl [Example 153] | 75% | 100% | 100% | 95% | 100% | 90% | 86% | 100% | 4.19 | 93% |  |  | 
7 | Cn1nc(C(F)F)c(C(=O)Nc2ccc(F)cc2-c2ccc(C(F)(F)F)cc2)c1F [Example 118] | 100% | 100% | 100% | 100% | 95% | 100% | 86% | 100% | 3.60 | 71% |  |  | 
8 | CCCCCc1ccccc1NC(=O)c1c(C(F)F)nn(C)c1Cl [Example 12] | 99% |  | 100% | 100% | 100% |  | 71% | 100% | 4.01 | 86% | 100% |  | Efficacy (Pyricularia oryzae; in vivo): 93%; Efficacy ([2]; 250 ppm): 71%; protection ([2]; dose of 250 ppm and 500 ppm of active ingredient): at least 70%
9 | Cn1nc(C(F)F)c(C(=O)Nc2ccccc2-c2ccc(Cl)c(F)c2)c1Cl [Example 99] | 97% |  | 100% | 100% | 100% |  | 86% | 100% | 3.71 | 100% | 100% | 95% | 
10 | Cn1nc(C(F)F)c(C(=O)Nc2ccccc2C2CC3CCC2C3)c1F (centres unmarked) [Example 51] | 100% | 96% | 71% | 100% | 100% | 95% | 80% | 100% | 3.78 |  |  |  | Efficacy (Phakopsora pachyrhizi): 93%
11 | Cn1nc(C(F)F)c(C(=O)Nc2ccccc2-c2cccc(Cl)c2)c1F [Example 86] | 100% |  | 100% | 100% | 100% | 95% | 86% | 100% | 3.55 | 71% |  |  | 
12 | CC(CC(C)(C)C)c1ccccc1NC(=O)c1c(C(F)F)nn(C)c1Cl (centres unmarked) [Example 22] | 100% |  | 100% | 100% | 100% |  |  | 100% | 4.31 | 86% | 100% |  | Efficacy (Pyricularia oryzae; in vivo): 80%
13 | CC(C)CCc1ccccc1NC(=O)c1c(C(F)F)nn(C)c1F [Example 7] |  |  | 100% |  |  | 95% | 88% | 100% | 3.60 |  | 100% | 80% | Efficacy (Pyricularia oryzae; in vivo): 97%
14 | Cn1nc(C(F)F)c(C(=O)Nc2ccc(F)cc2-c2ccc(Cl)c(Cl)c2)c1Cl [Example 117] | 99% |  | 100% | 100% | 100% |  |  | 100% | 4.04 |  |  |  | Efficacy (Phakopsora pachyrhizi): 98%
15 | CC1CC(C)(C)c2cccc(NC(=O)c3c(C(F)F)nn(C)c3F)c21 (racemic) [Example 64] | 95% | 100% | 100% | 99% | 100% | 95% | 100% | 100% |  | 75% |  |  | Efficacy (Phakopsora pachyrhizi): 97%
16 | Cn1nc(C(F)F)c(C(=O)Nc2ccc(F)cc2-c2ccc(Cl)c(F)c2)c1Cl [Example 98] | 100% |  | 100% | 100% | 100% |  |  | 100% | 3.74 | 86% | 100% | 93% | 
17 | Cn1nc(C(F)F)c(C(=O)Nc2ccccc2CC[Si](C)(C)C)c1Cl [Example 24] | 78% |  | 100% | 100% | 100% |  |  | 86% | 4.36 | 86% | 100% |  | Efficacy (Pyricularia oryzae; in vivo): 98%
18 | Cn1nc(C(F)F)c(C(=O)Nc2ccccc2-c2ccc(C(F)(F)F)c(F)c2)c1F [Example 149] | 99% | 100% | 100% | 100% | 100% | 100% | 100% | 100% | 3.46 | 93% |  |  | 
19 | Cn1nc(C(F)F)c(C(=O)Nc2ccccc2OC(F)(F)C(F)C(F)(F)F)c1Cl (centres unmarked) [Example 31] |  | 91% |  |  |  | 100% |  |  | 3.71 |  | 100% | 80% | Efficacy (Pyricularia oryzae; in vivo): 98%
20 | Cn1nc(C(F)F)c(C(=O)Nc2ccccc2-c2ccc(Br)cc2)c1F [Example 139] | 100% |  | 100% | 100% | 100% |  | 100% | 100% | 3.56 | 93% | 100% | 95% | 
21 | Cn1nc(C(F)F)c(C(=O)Nc2ccc(F)cc2-c2ccc(Cl)cc2)c1Cl [Example 83] | 100% | 100% |  | 100% | 100% | 94% |  |  | 3.76 |  |  |  | Efficacy (Phakopsora pachyrhizi): 94%
22 | Cn1nc(C(F)F)c(C(=O)Nc2ccc(F)cc2-c2ccc(Cl)cc2)c1F [Example 84] | 99% |  |  | 100% | 99% | 94% |  |  | 3.46 |  |  |  | Efficacy (Phakopsora pachyrhizi): 80%
23 | CC(C)CC(C)c1ccccc1NC(=O)c1c(C(F)F)nn(C)c1F (centres unmarked) [Example 11] | 95% | 100% | 100% | 100% | 100% | 100% | 89% | 100% | 3.85 |  | 100% |  | 
24 | CC(C)OCc1cccc(NC(=O)c2c(C(F)F)nn(C)c2F)c1 [Example 166] |  |  |  |  |  |  |  |  | 2.72 |  |  | 80% | 
